Measured values: a compilation of properties of binary mixtures (doi:10.1016/j.molliq.2020.112507)

Experiment: xn = mol fraction of the nth substance listed
Settings: 100 kPa

CCCC#N + CCCC[n+]1ccn(C)c1.COS(=O)(=O)[O-]
speed of sound [m/s]
Settings	x2 = 0	x2 = 0.1117	x2 = 0.2128	x2 = 0.3714	x2 = 0.4263	x2 = 0.5115	x2 = 0.6345	x2 = 0.7161	x2 = 0.8065	x2 = 0.9072
298.15 K	1279.9	–	1395.9	1468.7	1490.6	1521.4	1559.7	–	1605.3	1630.9
303.15 K	1260.6	1323.5	1378.9	1452.9	1475.5	–	1545.8	1568.8	–	1618.2
308.15 K	1241	1305.2	1361.8	1437.1	1460.3	–	1531.9	–	1579.1	1605.5
313.15 K	1221.2	1286.9	1344.7	1421.4	–	1477.3	–	1541.4	1566	1592.8

CCCC[n+]1ccn(C)c1.COS(=O)(=O)[O-] + CCCC#N
x1 = 1
Settings	speed of sound [m/s]
298.15 K	1654.9
308.15 K	1630.2
313.15 K	1618.2
